This note sets out measurements from ChEMBL document CHEMBL1129410, “Diastereoselective synthesis of all four isomers of 3-(4-chlorophenyl) glutamic acid: identification of the isomers responsible for the potentiation of L-homocysteic acid-evoked depolarizations in neonatal rat motoneurons” (1996).

The experiment is filed under the species Rattus norvegicus. In words: Effects of isomer (100 uM) upon 10 uM L-HCA-induced depolarization; Control. The class given is functional.
Turning to `NC(C(=O)O)[C@H](CC(=O)O)c1ccc(Cl)cc1` (stereo partly drawn), the Others is 130.4%. As to `N[C@H](C(=O)O)[C@@H](CC(=O)O)c1ccc(Cl)cc1`, the Others is 114.5%. As to `N[C@@H](C(=O)O)[C@H](CC(=O)O)c1ccc(Cl)cc1`, the Others worked out at 94.2%.
